Reference: ChEMBL document CHEMBL5331122, “Structure-Activity Relationship Study of Antimicrobial Peptide PE2 Delivered Novel Linear Derivatives with Potential of Eradicating Biofilms and Low Incidence of Drug Resistance” (J Med Chem, 2023)
In brackets after ≈: the same amount, converted by molar mass. Activity calls are given as the source filed them. The rule behind the calls is not given here.

Tests used:
Staphylococcus aureus [1] = test: Additive antibacterial activity against Staphylococcus aureus ATCC 25923 assessed as bacterial growth inhibition incubated for 18 hrs in presence of rifampicin by checkerboard assay; format: functional, organism-based
Escherichia coli [2] = test: Induction of drug resistance against Escherichia coli ATCC 25922 assessed as fold increase in MIC measured upto 15 passages by sequential passaging method; format: functional
Cell membrane [3] = test: Induction of outer membrane permeabilization in Escherichia coli ATCC 25922 assessed as increase in fluorescence intensity at 1 to 4 times MIC measured for 12 hrs by NPN uptake assay; format: subcellular
Escherichia coli [4] = test: Antibiofilm activity against Escherichia coli ATCC 25922 assessed as biofilm eradication at 1 times MIC incubated for 24 hrs; format: functional, organism-based
Cell membrane [5] = test: Induction of cell membrane damage in Staphylococcus aureus ATCC 25923 at 2 times MIC after 0.5 to 2 hrs by propidium iodide staining based flow cytometer assay; format: subcellular; conditions: time 0.5-2 hrs
Cell membrane [6] = test: Induction of outer membrane permeabilization in Escherichia coli ATCC 25922 assessed as increase in fluorescence intensity at 2 times MIC measured for 12 hrs by NPN uptake assay; format: subcellular
Escherichia coli [7] = test: Additive antibacterial activity against Escherichia coli ATCC 25922 assessed as bacterial growth inhibition incubated for 18 hrs in presence of gentamycin by checkerboard assay; format: functional, organism-based
Bacillus subtilis = test: Antibacterial activity against Bacillus subtilis ATCC 23857 assessed as bacterial growth inhibition incubated for 18 hrs by broth microdilution method; format: functional
Staphylococcus aureus [8] = test: Additive antibacterial activity against gentamycin-resistant Staphylococcus aureus ATCC 25923 incubated for 18 hrs in presence of gentamycin by checkerboard assay; format: functional, organism-based
Escherichia coli [9] = test: Antibacterial activity against Escherichia coli ATCC 25922 assessed as fold increase in MIC in presence of KCl; format: functional
Staphylococcus aureus [10] = test: Bactericidal activity against Staphylococcus aureus ATCC 25923 assessed as inhibition of bacterial growth at 1 times MIC measured upto 360 mins by time-kill assay; format: functional, organism-based
Escherichia coli [11] = test: Inhibition of biofilm formation in Escherichia coli ATCC 25922 assessed as inhibition of biofilm formation at 1/2 times MIC incubated for 24 hrs by crystal violet staining based analysis; format: functional, organism-based
Staphylococcus aureus [12] = test: Antibacterial activity against Staphylococcus aureus ATCC 25923 assessed as fold increase in MIC in presence of KCl; format: functional
Escherichia coli [13] = test: Antibacterial activity against Escherichia coli ATCC 25922 assessed as fold increase in MIC in presence of FeCl3; format: functional
Staphylococcus aureus [14] = test: Antibacterial activity against Staphylococcus aureus ATCC 25923 in presence of 10% mouse serum measured for 6 hrs; format: functional, organism-based
Cell membrane [15] = test: Induction of outer membrane permeabilization in Escherichia coli ATCC 25922 assessed as increase in fluorescence intensity at 1 times MIC measured for 12 hrs by NPN uptake assay; format: subcellular
Escherichia coli [16] = test: Inhibition of biofilm formation in Escherichia coli ATCC 25922 assessed as inhibition of biofilm formation incubated for 24 hrs by crystal violet staining based analysis; format: functional, organism-based
Escherichia coli [17] = test: Antimicrobial activity against Escherichia coli ATCC 25922 assessed as reduction in survival bacterial growth in presence of chymotrypsin measured after 6 hrs; format: functional, organism-based
Staphylococcus aureus [18] = test: Induction of membrane morphological changes in Staphylococcus aureus ATCC 25923 at 4 times MIC measured at 0.5 to 2 hrs by SEM analysis; format: functional, organism-based; conditions: time 0.5-2 hrs
Staphylococcus aureus [19] = test: Bactericidal activity against Staphylococcus aureus ATCC 25923 assessed as inhibition of bacterial growth at 1/2 times MIC measured upto 360 mins by time-kill assay; format: functional, organism-based
Staphylococcus aureus [20] = test: Bactericidal activity against Staphylococcus aureus ATCC 25923 assessed as inhibition of bacterial growth at 0.5 to 2 times MIC measured at 120 mins by time-kill assay; format: functional, organism-based
Escherichia coli [21] = test: Additive antibacterial activity against Escherichia coli ATCC 25922 assessed as bacterial growth inhibition incubated for 18 hrs in presence of rifampicin by checkerboard assay; format: functional, organism-based
Escherichia coli [22] = test: Bactericidal activity against Escherichia coli ATCC 25922 assessed as inhibition of bacterial growth incubated upto 360 mins by time-kill assay; format: functional, organism-based
Staphylococcus aureus [23] = test: Additive antibacterial activity against Staphylococcus aureus ATCC 25923 assessed as bacterial growth inhibition incubated for 18 hrs in presence of gentamycin by checkerboard assay; format: functional, organism-based
Staphylococcus aureus [24] = test: Induction of drug resistance against Staphylococcus aureus ATCC 25923 measured upto 15 passages by sequential passaging method; format: functional
Klebsiella pneumoniae [25] = test: Antibacterial activity against Klebsiella pneumoniae ATCC 700603 infected in BALB/c mouse pneumonia model assessed as alveolar expansion at 5 to 10 mg/kg, ip measured at 4 to 12 hrs by hematoxylin and eosin staining based analysis; format: functional, organism-based; conditions: dose 5-10 mg/kg, time 4-12 hrs
Erythrocyte = test: Hemolytic activity in mouse red blood cell assessed as hemolysis incubated for 1 hr; format: toxicity, cell-based; conditions: dose 4-256 µg/ml
Klebsiella pneumoniae [26] = test: Antibacterial activity against Klebsiella pneumoniae ATCC 700603 infected in BALB/c mouse pneumonia model at 5 to 10 mg/kg, ip measured at 4 to 12 hrs; format: functional, organism-based; conditions: dose 5-10 mg/kg, time 4-12 hrs
Escherichia coli [27] = test: Additive antibacterial activity against gentamycin-resistant Escherichia coli ATCC 25922 incubated for 18 hrs by checkerboard assay; format: functional, organism-based
[28] = Acute toxicity in Kunming mouse assessed as survival rate at 20 mg/kg, ip measured for 7 days; format: organism-based; conditions: in vivo, 168 h, time 7 day
Staphylococcus aureus [29] = test: Antibacterial activity against rifampicin-resistant Staphylococcus aureus ATCC 25923 assessed as reduction in bacterial growth incubated for 18 hrs by broth microdilution method; format: functional
Staphylococcus aureus [30] = test: Antimicrobial activity against methicillin-resistant Staphylococcus aureus ATCC 33591 assessed as inhibition of microbial growth incubated for 18 hrs by broth microdilution analysis; format: functional, organism-based; conditions: ATCC 33591, 18 h
Staphylococcus aureus [31] = test: Antibacterial activity against gentamycin-resistant Staphylococcus aureus ATCC 25923 assessed as reduction in bacterial growth incubated for 18 hrs by broth microdilution method; format: functional
Escherichia coli [32] = test: Antibacterial activity against rifampicin-resistant Escherichia coli ATCC 25922 assessed as reduction in bacterial growth incubated for 18 hrs by broth microdilution method; format: functional
Escherichia coli [33] = test: Antibacterial activity against gentamycin-resistant Escherichia coli ATCC 25922 assessed as reduction in bacterial growth incubated for 18 hrs by broth microdilution method; format: functional
Klebsiella pneumoniae [34] = test: Antibacterial activity against Klebsiella pneumoniae ATCC 700603 infected in BALB/c mouse pneumonia model assessed as reduction in infiltration of inflammatory cells at 5 to 10 mg/kg, ip measured at 4 to 12 hrs by hematoxylin and eosin staining based analysis; format: functional, organism-based; conditions: dose 5-10 mg/kg, time 4-12 hrs
[35] = Acute toxicity in ip dosed Kunming mouse assessed as lethal dose measured upto 7 days; format: organism-based; conditions: in vivo, time < 7 day; for LD50 at 168 h: Kunming
Escherichia coli [36] = test: Bactericidal activity against Escherichia coli ATCC 25922 assessed as inhibition of bacterial growth at 0.5 to 2 times MIC measured at 120 mins by time-kill assay; format: functional, organism-based
Klebsiella pneumoniae [37] = test: Antibacterial activity against Klebsiella pneumoniae ATCC 700603 infected in BALB/c mouse pneumonia model assessed as reduction in lung bacterial load at 5 to 10 mg/kg, ip measured at 4 to 12 hrs; format: functional, organism-based; conditions: dose 5-10 mg/kg, time 4-12 hrs
Escherichia coli [38] = test: Bactericidal activity against Escherichia coli ATCC 25922 assessed as inhibition of bacterial growth at 1 times MIC measured at 180 mins by time-kill assay; format: functional, organism-based

Structure (SMILES)	Activity (Staphylococcus aureus [1])	fold change (FC) (Escherichia coli [2])	Activity (Cell membrane [3])	Activity (Escherichia coli [4])	Activity (Cell membrane [5])	Activity (Cell membrane [6])	MIC (Bacillus subtilis) [µg/mL]	fold change (FC) (Escherichia coli [9])	Activity (Staphylococcus aureus [10])	inhibition (Escherichia coli [11])	fold change (FC) (Staphylococcus aureus [12])	fold change (FC) (Escherichia coli [13])	Activity (Staphylococcus aureus [14])	Activity (Cell membrane [15])	inhibition (Escherichia coli [16])	Activity (Escherichia coli [17])	Activity (Staphylococcus aureus [18])	Activity (Staphylococcus aureus [19])	Activity (Escherichia coli [22])	Activity (Staphylococcus aureus [24])	also measured
CC[C@H](C)[C@@H]1NC(=O)[C@H](CCN)NC(=O)C[C@@H](C(C)C)OC(=O)[C@H]([C@@H](C)O)NC(=O)[C@H](CC(C)C)NC(=O)[C@@H](C(C)C)NC(=O)[C@H](CCN)NC(=O)[C@H](CC(C)C)NC(=O)[C@@H](Cc2ccccc2)NC(=O)[C@H](CCN)NC1=O	Active	64	Active	inactive	Active	Active	4 (≈ 3.63 µM)	<=2	inactive	Active	<=2	<=2	Active	Active	Dose-Dependent Effect	Active	Active	inactive	Dose-Dependent Effect	Active	Activity (Escherichia coli [7]): Active; Activity (Staphylococcus aureus [8]): Active; Activity (Staphylococcus aureus [20]): Active; Activity (Escherichia coli [21]): Active; Activity (Staphylococcus aureus [23]): Active
CCCCCCC(=O)N[C@@H](CCN)C(=O)N[C@H](C(=O)N[C@@H](CCN)C(=O)N[C@H](Cc1ccccc1)C(=O)N[C@@H](CC(C)C)C(=O)N[C@@H](CCN)C(=O)N[C@@H](C(=O)N[C@@H](CC(C)C)C(=O)N[C@@H](Cc1ccc(O)cc1)C(N)=O)C(C)C)[C@@H](C)CC		64	Active	inactive	Active	Active	2 (≈ 1.7 µM)	<=2	inactive	Active	<=2	<=2	Active	Active	Dose-Dependent Effect	Active	Active	inactive	Dose-Dependent Effect	Active	Activity (Klebsiella pneumoniae [25]): Active; HC10 (Erythrocyte): 512 µg/mL; Activity (Klebsiella pneumoniae [26]): Active; Activity (Escherichia coli [27]): Active; Activity [28]: Non-Toxic; MIC (Staphylococcus aureus [29]): < 8 µg/mL; EC50 (Staphylococcus aureus [30]): 4.65 µg/mL; MIC (Staphylococcus aureus [31]): 8 µg/mL (≈ 6.79 µM); Activity (Staphylococcus aureus [8]): Active; MIC (Escherichia coli [32]): < 8 µg/mL; MIC (Escherichia coli [33]): 4 µg/mL (≈ 3.39 µM); Activity (Klebsiella pneumoniae [34]): Active; LD50 at 168 h [35]: 32 mg/kg; Activity (Escherichia coli [36]): Active; Activity (Klebsiella pneumoniae [37]): Active; Activity (Escherichia coli [38]): Active
CCCCCCCC(=O)N[C@@H](CCN)C(=O)N[C@H](C(=O)N[C@@H](CCN)C(=O)N[C@H](Cc1ccccc1)C(=O)N[C@@H](CC(C)C)C(=O)N[C@@H](CCN)C(=O)N[C@@H](C(=O)N[C@@H](CC(C)C)C(=O)N[C@@H](Cc1ccc(O)cc1)C(N)=O)C(C)C)[C@@H](C)CC	Active	64	Active	Active	Active	inactive	2 (≈ 1.68 µM)	<=2	inactive	inactive	<=2	<=2	Active	inactive	Dose-Dependent Effect	Active	Active	inactive	Dose-Dependent Effect	Active	Activity (Klebsiella pneumoniae [25]): Active; HC10 (Erythrocyte): 128 µg/mL; Activity (Klebsiella pneumoniae [26]): Active; Activity (Escherichia coli [27]): Active; Activity [28]: Non-Toxic; MIC (Staphylococcus aureus [29]): < 8 µg/mL; EC50 (Staphylococcus aureus [30]): 2.99 µg/mL; Activity (Escherichia coli [7]): Active; MIC (Staphylococcus aureus [31]): 8 µg/mL (≈ 6.71 µM); MIC (Escherichia coli [32]): < 8 µg/mL; MIC (Escherichia coli [33]): 2 µg/mL (≈ 1.68 µM); Activity (Klebsiella pneumoniae [34]): Active; LD50 at 168 h [35]: 33.6 mg/kg; LD ([35]; ip, 168 h): 80 mg/kg; Activity (Escherichia coli [36]): Active; Activity (Staphylococcus aureus [20]): Active; Activity (Escherichia coli [21]): Active; Activity (Staphylococcus aureus [23]): Active; Activity (Klebsiella pneumoniae [37]): Active; Activity (Escherichia coli [38]): Active
